Reference: PubChem BioAssay AID651581 (Sanford-Burnham Center for Chemical Genomics, 2012)
pIC50: −log10 of the molar value. Active and inactive are the calls of the source. The rule behind the calls is not given here.

Tests used:
[1] = biological target: Endothelial PAS domain-containing protein 1 (Homo sapiens) (UniProt Q99814); experiment: potency against HIF reporters across cell lines – luminescence, panel, selectivity assay for HIF-2a inhibitor project, dose response (AID 651581); details: human cell HIF reporter
[2] = biological target: Hypoxia-inducible factor 1-alpha (Homo sapiens) (UniProt Q16665); experiment: as above; details: human cell HIF reporter, HIF-1a
Hypoxia-inducible factor 1-alpha (Homo sapiens), sequence (Q16665 whole entry, looked up): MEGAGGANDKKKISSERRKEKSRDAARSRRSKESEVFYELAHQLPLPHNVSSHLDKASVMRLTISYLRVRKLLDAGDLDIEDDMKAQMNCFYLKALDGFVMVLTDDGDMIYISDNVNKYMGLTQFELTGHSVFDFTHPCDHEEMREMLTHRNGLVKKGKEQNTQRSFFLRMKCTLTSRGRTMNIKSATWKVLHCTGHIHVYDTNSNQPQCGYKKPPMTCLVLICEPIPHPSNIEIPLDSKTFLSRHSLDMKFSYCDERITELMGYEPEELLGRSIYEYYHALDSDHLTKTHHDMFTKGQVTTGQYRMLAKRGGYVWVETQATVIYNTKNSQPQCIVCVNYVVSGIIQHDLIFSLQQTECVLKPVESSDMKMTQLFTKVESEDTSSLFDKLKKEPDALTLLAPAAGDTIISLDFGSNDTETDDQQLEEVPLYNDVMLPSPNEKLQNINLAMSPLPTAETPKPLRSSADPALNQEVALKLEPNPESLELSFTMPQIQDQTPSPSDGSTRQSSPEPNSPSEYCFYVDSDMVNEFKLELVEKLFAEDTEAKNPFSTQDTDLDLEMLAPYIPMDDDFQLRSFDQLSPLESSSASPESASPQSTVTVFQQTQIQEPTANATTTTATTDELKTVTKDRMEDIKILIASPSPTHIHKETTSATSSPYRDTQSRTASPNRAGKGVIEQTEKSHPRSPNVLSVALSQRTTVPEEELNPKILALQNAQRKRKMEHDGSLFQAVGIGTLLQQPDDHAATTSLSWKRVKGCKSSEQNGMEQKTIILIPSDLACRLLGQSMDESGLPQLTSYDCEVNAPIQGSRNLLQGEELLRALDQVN

Structure (SMILES)	IC50 ([1]; HIF-2a PANC, mean of runs)	pIC50 ([1]; HIF-2a PANC, run 1)	pIC50 ([1]; HIF-2a PANC, run 2)	IC50 ([1]; HIF-2a, mean of runs)	pIC50 ([1]; HIF-2a, run 1)	pIC50 ([1]; HIF-2a, run 2)	IC50 ([2]; mean of runs)	pIC50 ([2]; run 1)	pIC50 ([2]; run 2)	pIC50 ([1]; HIF-2a PANC, mean of runs)	pIC50 ([1]; HIF-2a, mean of runs)	pIC50 ([2]; mean of runs)
CCOC(=O)c1ccc(Oc2nc(NC(C)(C)C)nc(N(C)C)n2)cc1	inactive	4.68	4.28	inactive	5.05	4.92	inactive	4.66	4.50			
O=C(CCCSc1nc2ccccc2s1)NC1=NCCS1		5.14	5.13		5.15	5.24	inactive	4.82	4.98	5.13	5.20	
O=C(Nc1ccc(NC(=S)NC(=O)c2ccco2)cc1)c1ccc(Br)cc1	> 99 µM (inactive)	< 4.00	< 4.00		5.93	6.06		6.19	< 4.00		5.99	
CC(=O)Nc1ccc(Oc2sc(C(=O)c3ccccc3)c(N)c2C#N)cc1	inactive	4.33	4.18	inactive	4.76	4.96	inactive	4.56	4.54			
Cc1ccc(-n2nc3ccc(N)cc3n2)c(C)c1	inactive	5.77	5.46		6.34	6.35		< 4.00	< 4.00		6.34	
Cc1ccc(S(=O)(=O)c2ncccc2[N+](=O)[O-])cc1		4.69	4.77		5.00	5.03	inactive	4.67	4.64	4.73	5.01	
CCOC(=O)C1CCN(C(=O)CCc2c(C)nc3cc(-c4ccccc4)nn3c2C)CC1		5.74	5.60		5.82	5.90		4.90	5.16	5.67	5.86	5.01
Cc1ccc(NC(=O)c2cc(N3C(=O)C=CC3=O)ccc2N2CCOCC2)cc1	> 99 µM (inactive)	< 4.00	< 4.00		5.02	5.00		4.19	< 4.00		5.01	
